Measured values reported in ChEMBL document CHEMBL1201862, “PubChem BioAssay data set” (2004).
Active and inactive are the calls of the source.

Key:
[1] = molecular target: Heat shock protein HSP 90-alpha (Homo sapiens, UniProt P07900); format: functional, organism-based
[2] = molecular target: T1, Histone-lysine N-methyltransferase NSD2 (Homo sapiens, UniProt O96028); format: biochemical
T1 sequence (O96028 whole entry): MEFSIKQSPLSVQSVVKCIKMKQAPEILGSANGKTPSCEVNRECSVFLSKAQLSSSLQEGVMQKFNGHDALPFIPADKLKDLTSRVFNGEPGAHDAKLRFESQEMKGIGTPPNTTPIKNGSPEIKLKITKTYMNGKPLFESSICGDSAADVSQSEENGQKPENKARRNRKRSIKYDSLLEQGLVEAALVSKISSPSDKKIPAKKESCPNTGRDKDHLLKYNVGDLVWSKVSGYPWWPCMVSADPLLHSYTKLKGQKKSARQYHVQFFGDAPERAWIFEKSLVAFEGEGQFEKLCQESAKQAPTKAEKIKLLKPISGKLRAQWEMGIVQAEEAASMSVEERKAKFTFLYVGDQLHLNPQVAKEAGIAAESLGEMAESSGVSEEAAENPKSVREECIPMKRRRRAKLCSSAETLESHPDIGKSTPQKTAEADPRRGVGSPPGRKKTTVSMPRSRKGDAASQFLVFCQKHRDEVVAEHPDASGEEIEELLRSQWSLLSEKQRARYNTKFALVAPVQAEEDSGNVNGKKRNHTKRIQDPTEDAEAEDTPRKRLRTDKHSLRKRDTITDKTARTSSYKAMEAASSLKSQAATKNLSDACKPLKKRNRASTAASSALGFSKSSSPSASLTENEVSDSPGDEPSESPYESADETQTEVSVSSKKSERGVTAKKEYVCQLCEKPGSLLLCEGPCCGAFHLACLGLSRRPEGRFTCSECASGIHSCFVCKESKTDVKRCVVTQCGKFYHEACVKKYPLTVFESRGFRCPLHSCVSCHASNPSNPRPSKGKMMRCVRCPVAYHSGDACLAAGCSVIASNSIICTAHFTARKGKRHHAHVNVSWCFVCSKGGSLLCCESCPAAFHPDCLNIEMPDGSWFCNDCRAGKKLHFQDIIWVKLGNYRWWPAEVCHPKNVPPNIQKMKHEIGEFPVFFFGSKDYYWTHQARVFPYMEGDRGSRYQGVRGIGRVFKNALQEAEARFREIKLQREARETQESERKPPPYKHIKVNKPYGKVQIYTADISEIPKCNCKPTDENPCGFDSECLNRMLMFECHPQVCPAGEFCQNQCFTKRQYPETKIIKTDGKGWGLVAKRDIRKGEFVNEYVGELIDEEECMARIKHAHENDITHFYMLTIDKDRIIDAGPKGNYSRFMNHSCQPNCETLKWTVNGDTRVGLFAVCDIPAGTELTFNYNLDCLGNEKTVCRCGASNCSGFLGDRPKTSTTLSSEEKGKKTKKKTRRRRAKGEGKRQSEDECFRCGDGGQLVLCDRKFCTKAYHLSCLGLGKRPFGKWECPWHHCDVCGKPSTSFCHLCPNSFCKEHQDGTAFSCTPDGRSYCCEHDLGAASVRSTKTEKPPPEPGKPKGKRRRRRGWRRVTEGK

[3] = viability loss in HepG2 hepatoma cells – cell-based, ATP luminescence, cherry-pick, activator set 2, cytotoxicity control, dose response (AID 1053143); format: functional
INS1 = test: INS-1E survival protection against cytokine death – cell-based, luminescence, retest, dose response (AID 449756); format: functional; settings: Rattus norvegicus;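 also: cell death triggered by IL-1 beta plus TNF-alpha plus IFN-gamma mixture; protective hits raise ATP signal compared with cytokine alone wells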
[4] = A549 cell cytotoxicity, dose response, cytotoxicity control, plate reader, cherry-pick, antagonist series (AID 743412); format: functional, cell-based
[5] = molecular target: T2, DNA repair and recombination protein RAD54-like (Homo sapiens, UniProt Q92698); test: RAD54 Holliday junction migration blockers – biochemical, fluorescence, cherry-picked samples, dose series, confirmation (AID 651657); format: functional
T2 sequence (Q92698 whole entry): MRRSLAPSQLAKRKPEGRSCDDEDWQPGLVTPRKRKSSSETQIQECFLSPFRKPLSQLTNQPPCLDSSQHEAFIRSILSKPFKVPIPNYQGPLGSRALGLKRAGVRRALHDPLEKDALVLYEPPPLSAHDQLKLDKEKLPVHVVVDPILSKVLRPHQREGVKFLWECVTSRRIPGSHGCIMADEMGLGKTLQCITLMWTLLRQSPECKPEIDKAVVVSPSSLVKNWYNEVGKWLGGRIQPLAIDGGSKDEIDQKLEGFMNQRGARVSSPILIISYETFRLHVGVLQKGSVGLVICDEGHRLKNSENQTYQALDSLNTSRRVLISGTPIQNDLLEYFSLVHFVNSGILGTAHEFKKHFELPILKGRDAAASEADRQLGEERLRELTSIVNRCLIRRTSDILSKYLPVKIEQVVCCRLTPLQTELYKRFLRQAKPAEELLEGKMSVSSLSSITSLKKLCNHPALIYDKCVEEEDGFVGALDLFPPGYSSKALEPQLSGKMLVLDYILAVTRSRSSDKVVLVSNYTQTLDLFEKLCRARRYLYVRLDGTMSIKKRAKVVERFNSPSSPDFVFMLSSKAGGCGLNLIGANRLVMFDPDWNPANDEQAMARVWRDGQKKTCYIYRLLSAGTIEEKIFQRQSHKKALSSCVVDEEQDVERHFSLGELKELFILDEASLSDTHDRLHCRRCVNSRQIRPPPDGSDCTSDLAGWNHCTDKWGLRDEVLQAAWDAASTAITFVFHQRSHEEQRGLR

[6] = blockade of melanocortin 4 receptor signaling – cell-based, plate reader, cherry pick, counter-screen for LGR2 antagonist project, dose response (AID 743444); format: functional;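 also: transfected HEK 293 cells stimulated with alpha-MSH peptide; potency of inhibitors of the alpha-MSH evoked signal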
[7] = viability loss in HEK293 cells – cell-based, plate reader, cherry-picked samples, cytotoxicity control, dose response (AID 743446); format: functional
[8] = blockers of bursicon-stimulated LGR2 cAMP reporter – cell-based, HEK293, CRE-luciferase reporter, cherry pick, set 2, dose response (AID 743343); format: functional;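 also: transfected cells were stimulated with diluted bursicon conditioned medium after compound addition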
[9] = toxicity toward HepG2 liver cells – cell-based, plate reader, cherry-pick, antagonist series, cytotoxicity control, dose response (AID 743416); format: functional
cells [10] = test: cells
[11] = molecular target: T3, Oxysterols receptor LXR-beta (Homo sapiens, UniProt P55055); format: functional, cell-based;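 also: Cell-based luminescence dose-response assay of agonist activity at LXR, run as a confirmatory counterscreen to a daf-12 agonist screen; HEK293 cells with Gal4-LXR fusion and GAL4-driven luciferase reporter; agonist potency from rising luciferase signal of a Gal4-LXR reporter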
T3 sequence (P55055 whole entry): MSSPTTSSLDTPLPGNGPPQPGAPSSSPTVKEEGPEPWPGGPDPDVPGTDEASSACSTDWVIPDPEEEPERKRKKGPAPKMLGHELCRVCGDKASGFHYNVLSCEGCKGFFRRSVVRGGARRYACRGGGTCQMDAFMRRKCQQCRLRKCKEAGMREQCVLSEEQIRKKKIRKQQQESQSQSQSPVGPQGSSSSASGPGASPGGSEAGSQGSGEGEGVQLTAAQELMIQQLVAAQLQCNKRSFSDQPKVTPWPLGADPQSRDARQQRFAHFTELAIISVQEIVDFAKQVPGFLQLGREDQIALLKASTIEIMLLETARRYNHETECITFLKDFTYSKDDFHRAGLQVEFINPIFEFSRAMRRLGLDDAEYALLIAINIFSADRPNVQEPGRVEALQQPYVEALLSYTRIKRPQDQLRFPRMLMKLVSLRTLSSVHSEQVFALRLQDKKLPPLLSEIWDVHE

[12] = Luminescence-based cell-based high throughput dose response assay to identify activators of the DAF-12 from the parasite S. stercoralis (ssDAF-12).; format: functional
[13] = OVCAR8 cell viability loss – plate reader, dry powder samples, PAX8 project, dose response (AID 743197); format: functional, cell-based; settings: OVCAR-8
[14] = OVCAR-3 cell viability loss – plate reader, dry powder samples, PAX8 inhibitor project, dose response (AID 743044); format: functional, cell-based
[15] = IGROV1 cell killing – plate reader, dry powder samples, PAX8 inhibitor project, dose response (AID 743043); format: functional, cell-based; settings: IGROV-1
[16] = A2780 cell killing – plate reader, dry powder samples, cytotoxicity control, dose response (AID 743046); format: functional, cell-based
Paired box protein Pax-8 = Paired box protein Pax-8 (Homo sapiens, UniProt Q06710); test: PAX8 transcriptional activity inhibition in RMG-I – RMG-I cells, luciferase, cherry-pick, dose response (AID 687027); format: functional, cell-based;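 also: luciferase reporter driven by Pax8 target thyroperoxidase promoter measured by SteadyGlo luminescence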
[17] = toxicity toward immortalized ovarian surface epithelium – cell-based, plate reader, dry powder samples, cytotoxicity control for PAX8 inhibitor project, dose response (AID 743045); format: functional
cells [18] = format: functional, cell-based
cells [19] = format: functional, cell-based; remark: listed apart in the source
[20] = molecular target: T4, Trace amine-associated receptor 1 (Homo sapiens, UniProt Q96RJ0); test: Fluorescence-based cell-based high throughput dose response assay to identify agonists of the human trace amine associated receptor 1 (TAAR1).; format: functional
T4 sequence (Q96RJ0 whole entry): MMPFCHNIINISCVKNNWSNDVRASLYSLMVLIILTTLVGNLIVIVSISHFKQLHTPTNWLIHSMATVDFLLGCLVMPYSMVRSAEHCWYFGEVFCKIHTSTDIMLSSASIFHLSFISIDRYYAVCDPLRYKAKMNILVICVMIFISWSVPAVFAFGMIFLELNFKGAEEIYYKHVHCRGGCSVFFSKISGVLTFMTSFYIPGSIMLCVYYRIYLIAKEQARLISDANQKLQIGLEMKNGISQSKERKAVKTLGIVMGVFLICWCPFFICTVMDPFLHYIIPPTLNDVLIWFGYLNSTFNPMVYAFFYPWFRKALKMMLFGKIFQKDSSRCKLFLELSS

[21] = molecular target: T4, Trace amine-associated receptor 1; test: Counterscreen for agonists of the human trace amine associated receptor 1 (hTAAR1): Fluorescence-based cell-based high throughput dose response assay to identify hTAAR1 agonist that also desensitize TAAR1 receptor response.; format: functional
[22] = IC50 of insulin release inhibition, rat insulinoma INS-1E line, 5 mM glucose, cell-based (AID 1117331); format: functional
[23] = toxicity to human HepG2 hepatoma cells – cell-based, plate reader, dry powder samples, cytotoxicity control, dose response (AID 1159569); format: functional;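 also: inhibitor potency with signal falling toward the positive control level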
[24] = P. falciparum Dd2 growth inhibitors, dose response, SYBR Green, cherry-picked samples (AID 1159567); format: functional, cell-based
[25] = growth inhibition of yeast DHODH-expressing 3D7 parasites – SYBR Green, dry powder samples, dose response (AID 1159570); format: functional, cell-based;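 also: parasite growth measured after 72 hours of compound exposure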
[26] = Dd2 malaria parasite growth inhibition potency – SYBR Green, dry powder samples, dose response (AID 1159566); format: functional, cell-based;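 also: potency for growth inhibition with lower SYBR green DNA signal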
[27] = growth inhibition of PfATP4-mutant resistant parasites – NITD609-resistant line, SYBR Green, dry powder, dose response (AID 1159571); format: functional, cell-based;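 also: parasites synchronized at ring stage by sorbitol before testing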
[28] = toxicity to human hepatoma HepG2 cells – cell-based, cherry-picked samples, cytotoxicity control, dose response (AID 1159577); format: functional

Paired box protein Pax-8, sequence (Q06710 whole entry): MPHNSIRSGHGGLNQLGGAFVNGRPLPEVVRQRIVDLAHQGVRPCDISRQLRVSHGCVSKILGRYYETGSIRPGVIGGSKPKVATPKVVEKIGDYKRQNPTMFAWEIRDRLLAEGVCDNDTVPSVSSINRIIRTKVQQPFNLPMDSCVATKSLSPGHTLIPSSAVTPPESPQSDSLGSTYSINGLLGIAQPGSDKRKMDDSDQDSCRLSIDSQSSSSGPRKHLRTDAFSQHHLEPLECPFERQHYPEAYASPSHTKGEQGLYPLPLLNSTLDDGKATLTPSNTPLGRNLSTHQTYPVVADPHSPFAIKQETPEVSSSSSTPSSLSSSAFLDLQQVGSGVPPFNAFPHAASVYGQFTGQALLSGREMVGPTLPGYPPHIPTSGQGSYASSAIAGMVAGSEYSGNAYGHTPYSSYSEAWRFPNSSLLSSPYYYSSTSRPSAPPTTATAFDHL

With `CC1=NOC(=O)/C1=C\c1ccc(-c2ccc(Br)cc2)o1` the AC50 [1] was 4.12 µM (active) and the AC50 [2] was > 20 µM (inactive).

In the case of `CC(=O)Nc1sc2c(c1-c1nc3ccccc3s1)CN(C(C)C)CC2`, the AC50 [3] is reported as 12.5 µM (active), the AC50 (INS1) is reported as 0.752 µM (active) and the AC50 [4] is reported as 2.35 µM (active). The AC50 [5] was 0.715 µM (active), the AC50 [6] was 23.2 µM (active) and the AC50 [7] was 25.7 µM (active). For the same molecule, the AC50 [8] was 27.7 µM (active) and the AC50 [9] was 3.52 µM (active).

With `CC1CCCN(c2nc3ccsc3c(=O)s2)C1` (centres undefined) the AC50 [3] was > 52 µM (inactive).

For `Oc1ccccc1CNc1cccc2cccnc12`, the AC50 [2] was 14.4 µM (active).

In the case of `CCOC(=O)c1sc2nc(-c3ccccc3)ccc2c1N`, the EC50 (cells [10]) is reported as > 67.5 µM (inactive) and the EC50 [11] is reported as > 67.5 µM (inactive).

In the case of `O=[N+]([O-])c1cc(Cl)ccc1-c1nc(-c2ccccc2)no1`, the IC50 [12] is reported as > 67.6 µM (inactive).

For `C/C(=N\c1ccc(C)cc1)c1sc2ccccc2c1O`, the EC50 (cells [10]) was > 67.5 µM (inactive) and the EC50 [11] was > 67.5 µM (inactive).

With `C[C@H](CO)N1C[C@H](C)[C@@H](CN(C)Cc2ccccc2)OCCCC[C@H](C)Oc2ccc(NC(=O)Nc3ccc(C(F)(F)F)cc3)cc2C1=O` the AC50 [13] was 25.2 µM (active), the AC50 [14] was 16.7 µM (active) and the AC50 [15] was 22.4 µM (active). The AC50 [16] was 36.2 µM (active), the AC50 (Paired box protein Pax-8) was 13.5 µM (active) and the AC50 [17] was 39.8 µM (active).

In the case of `C[C@@H]1CN([C@H](C)CO)C(=O)c2cc(NC(=O)Nc3ccc(C(F)(F)F)cc3)ccc2O[C@@H](C)CCCCO[C@H]1CN(C)C(=O)Nc1ccc(C(F)(F)F)cc1`, the AC50 [13] is reported as 52.3 µM (active), the AC50 [14] is reported as 12.4 µM (active) and the AC50 [15] is reported as 63 µM (active). For the same molecule, the AC50 [16] was 34.1 µM (active) and the AC50 (Paired box protein Pax-8) was 1.89 µM (active).

With `O=C(N[C@@H](Cc1cccnc1)C(=O)N1CCC[C@H]1C(=O)NCCc1ccccc1Cl)C1CC1` the IC50 (cells [18]) was > 29.9 µM (inactive), the EC50 (cells [19]) was > 29.9 µM (inactive) and the EC50 [20] was > 9.98 µM (active). For the same molecule, the IC50 [21] was 13.6 µM (inactive).

For `CCO[C@H](Cc1ccc(OCCc2ccc(OS(C)(=O)=O)cc2)cc1)C(=O)O`, the IC50 [22] was > 33.3 µM (inactive).

For `OC[C@H]1[C@@H](c2ccc(-c3ccc(F)cc3)cc2)[C@@H]2CN(CCC(F)(F)F)CCCCN12`, the AC50 [23] was 17 µM (active), the AC50 [24] was 0.726 µM (active) and the AC50 [25] was 1.21 µM (active). The AC50 [26] was 0.518 µM (active), the AC50 [27] was 1.1 µM (active) and the AC50 [28] was 20.5 µM (active).

In the case of `N#Cc1ccc(-c2ccc([C@@H]3[C@@H]4CN(C(=O)C5CCCCC5)C[C@H]3N4)cc2)cc1`, the AC50 [23] is reported as 23.8 µM (active), the AC50 [24] is reported as 2.79 µM (active) and the AC50 [25] is reported as 2.4 µM (active). For the same molecule, the AC50 [26] was 1.34 µM (active) and the AC50 [27] was 2.85 µM (active).
